The values that follow come from ChEMBL document CHEMBL5120866, “Design and Synthesis of Novel Celastrol Derivatives as Potential Anticancer Agents against Gastric Cancer Cells” (J Nat Prod, 2022).

Assay [1] concerns BGC-823. The experiment in a line: Antiproliferative activity against human BGC-823 cells assessed as cell growth inhibition incubated for 48 hrs by MTT assay. The assay is classed as functional, cell-based. The conditions noted are these: BGC-823, 48 h.
Another assay has as its system HCT-116. The experiment in a line: Antiproliferative activity against human HCT-116 cells assessed as cell growth inhibition incubated for 48 hrs by MTT assay. The assay is classed as functional, cell-based. The note with it: HCT-116, 48 h.
In the next assay the test system is HepG2. The experiment in a line: Antiproliferative activity against human HepG2 cells assessed as cell growth inhibition incubated for 48 hrs by MTT assay. The assay is classed as functional, cell-based. The conditions noted are these: HepG2, 48 h. (In general: Formazan colour is commonly taken as a measure of viable cells.)
Another assay has as its system MCF7. The experiment in a line: Antiproliferative activity against human MCF7 cells assessed as cell growth inhibition incubated for 48 hrs by MTT assay. The class given is functional, cell-based. The note with it: MCF7, 48 h.
In another assay the test system is HeLa. The experiment in a line: Antiproliferative activity against human HeLa cells assessed as cell growth inhibition incubated for 48 hrs by MTT assay. The assay is classed as functional, cell-based.
In assay [2] the test system is BGC-823. The experiment in a line: Antiproliferative activity against human BGC-823 cells assessed as cell growth inhibition at 0.5 uM incubated for 48 hrs by MTT assay relative to control. The assay is classed as functional.
Assay [3] has as its system BGC-823. The experiment in a line: Induction of apoptosis in human BGC-823 cells assessed as viable cells at 1 uM incubated for 24 hrs by annexin-V-FITC and PI staining based flow cytometry analysis (reference value: 96.3%). The class given is functional. The note with it: read-out: Activity.
For assay [4], the system named is BGC-823. The experiment in a line: Induction of apoptosis in human BGC-823 cells assessed as early apoptotic cells at 1 uM incubated for 24 hrs by annexin-V-FITC and PI staining based flow cytometry analysis (reference value: 2.4%). The assay is classed as functional. Background: In flow cytometry, cells or beads pass a laser one at a time.
Assay [5] concerns BGC-823. The experiment in a line: Induction of apoptosis in human BGC-823 cells assessed as late apoptotic cells at 1 uM incubated for 24 hrs by annexin-V-FITC and PI staining based flow cytometry analysis (reference value: 0.6%). The assay is classed as functional.
Assay [6] deals with BGC-823. The experiment in a line: Induction of apoptosis in human BGC-823 cells assessed as necrotic cells at 1 uM incubated for 24 hrs by annexin-V-FITC and PI staining based flow cytometry analysis (reference value: 0.6%). The class given is functional.
Assay [7] relates to BGC-823. The experiment in a line: Antitumor activity against human BGC-823 cells xenografted in athymic BALB/c nude mouse assessed as tumor growth inhibition rate at 1.5 mg/kg, ip measured every 2 days for 21 days by curson caliper method relative to control. The conditions noted are these: BGC-823, 504 h, time 21 day, read-out: TGI. The assay is classed as functional.

SMILES strings stand for the structures. A value given as a limit tells only on which side of the number the result lay.

On to `CC1=C(O)C(=O)C=C2C1=CC=C1[C@@]2(C)CC[C@@]2(C)[C@@H]3C[C@](C)(C(=O)OCCCCn4cc(C)cn4)CC[C@]3(C)CC[C@]12C`, for which the IC50 – broadly, the concentration at which inhibition is half-maximal – with BGC-823 [1] turned out to be 430 nM; in the assay on HCT-116, 880 nM; in the assay on HepG2, 840 nM; with MCF7 it was 1000 nM; in the assay on HeLa it was 910 nM. In the assay on BGC-823 [2], the inhibition – broadly, the change of the read-out against control, counted positive when it falls – at 0.5 µM is greater than 50%.

As for `CC1=C(O)C(=O)C=C2C1=CC=C1[C@@]2(C)CC[C@@]2(C)[C@@H]3C[C@](C)(C(=O)O)CC[C@]3(C)CC[C@]12C` [CELASTROL], the IC50 in the assay on BGC-823 [1] was determined as 1100 nM; in the assay with HCT-116 it was 1900 nM; in the assay with HepG2 it was 1500 nM; with MCF7, 1700 nM; in the assay with HeLa it was 1700 nM. Further, the viability at 1 µM in the assay on BGC-823 [3] came to 79.7%. Also, the figures for the Activity with BGC-823 [4], with BGC-823 [5] and in the assay on BGC-823 [6] were 16.1%, 4% and 0.2%, respectively. The inhibition in vivo at 1.5 mg/kg with BGC-823 [7] worked out at 76.5%.

In the case of `CCOC(=O)c1cnn(CCCCOC(=O)[C@]2(C)CC[C@]3(C)CC[C@]4(C)C5=CC=C6C(=CC(=O)C(O)=C6C)[C@]5(C)CC[C@@]4(C)[C@@H]3C2)c1`, the IC50 in the assay on BGC-823 [1] was 330 nM; in the assay with HCT-116 it was 530 nM; in the assay with HepG2, 700 nM; in the assay on MCF7, 720 nM; in the assay with HeLa, 750 nM. For the same compound, the inhibition at 0.5 µM in the assay on BGC-823 [2] was greater than 50%.

Regarding `COC(=O)c1cnn(CCCCOC(=O)[C@]2(C)CC[C@]3(C)CC[C@]4(C)C5=CC=C6C(=CC(=O)C(O)=C6C)[C@]5(C)CC[C@@]4(C)[C@@H]3C2)c1`, the IC50 worked out at 340 nM in the assay with BGC-823 [1]; 690 nM in the assay with HCT-116; 820 nM with HepG2; 840 nM in the assay with MCF7; 820 nM in the assay on HeLa. The inhibition at 0.5 µM with BGC-823 [2] is greater than 50%.

For `CC1=C(O)C(=O)C=C2C1=CC=C1[C@@]2(C)CC[C@@]2(C)[C@@H]3C[C@](C)(C(=O)OCCCCn4cccn4)CC[C@]3(C)CC[C@]12C`, the IC50 turned out to be 470 nM in the assay with BGC-823 [1]; 890 nM in the assay with HCT-116; 860 nM in the assay on HepG2; 1100 nM with MCF7; 1100 nM in the assay with HeLa. Also, the inhibition at 0.5 µM with BGC-823 [2] is greater than 50%.

Turning to `COC(=O)c1cnn(CCCOC(=O)[C@]2(C)CC[C@]3(C)CC[C@]4(C)C5=CC=C6C(=CC(=O)C(O)=C6C)[C@]5(C)CC[C@@]4(C)[C@@H]3C2)c1`, the IC50 was 280 nM in the assay with BGC-823 [1]; 590 nM in the assay with HCT-116; 390 nM in the assay on HepG2; 520 nM with MCF7; 610 nM with HeLa. Besides, in the assay with BGC-823 [2], the inhibition at 0.5 µM is greater than 50%.

For `CC1=C(O)C(=O)C=C2C1=CC=C1[C@@]2(C)CC[C@@]2(C)[C@@H]3C[C@](C)(C(=O)OCCCCn4cc([N+](=O)[O-])cn4)CC[C@]3(C)CC[C@]12C`, the IC50 with BGC-823 [1] stood at 460 nM; in the assay with HCT-116, 640 nM; in the assay on HepG2 it was 480 nM; in the assay with MCF7 it was 740 nM; with HeLa, 880 nM. The inhibition at 0.5 µM in the assay on BGC-823 [2] is greater than 50%.
